From patent US20250049785A1, “METHODS FOR THE TREATMENT OF GLIOBLASTOMA THAT MINIMIZE RADIATION DAMAGE IN SUSCEPTIBLE PATIENTS” (Rhode Island Hospital, priority 2021, published 2025)

Assays:
[1] = bilateral hippocampal sparing whole brain radiation with memantine; cited from earlier work
[2] = system: IDH-1 wild-type glioblastoma; assay: Case presentation: elderly glioblastoma patient treated with involved-field radiotherapy and concomitant daily TMZ; assay type: in vivo, human
From the text: A right-handed person had developed confusion, word-finding difficulty and slurred speech. These symptoms included making phone calls to their spouse and asking their non-sensible questions. They lost their words intermittently and forgot names of their family members on a number of occasions. They recounted old stories as if they were perseverating and answered questions in the affirmative without actually hearing the question. Their mood also became more irritable. Their past medical history was notable for a skull fracture after fall from horseback riding when they were a teenager. The patient had undergone a neurocognitive evaluation from a memory disorder clinic in a major academic medical center and they had been diagnosed with a non-specific memory disorder.
The patient underwent a gross total resection of the mass 4 days after the MRI. […] Immunohistochemical staining was negative for IDH-1 R132H mutation but positive for ATRX, GFAP, Olig-2 and p53.
The radiation administered consisted of standard external beam radiotherapy. The left temporal postsurgical cavity as well as the ipsilateral putamen and globus pallidus were included in the maximum 6,000 cGy isodose line (see FIG. 2). The brainstem was covered in the 3,000 cGy isodose line while the contralateral putamen and globus pallidus received up to 1,800 cGy of radiation.
They became more forgetful and developed imbalance. […]

CC12CC3CC(C)(C1)CC(N)(C3)C2 [memantine]
neurocognitive function versus traditional fractionated whole brain radiotherapy [1]: preserves neurocognitive function better

Cn1nnc2c(C(N)=O)ncn2c1=O [TMZ, temozolomide]
cognitive status after treatment ([2]; after radiation (up to 6,000 cGy) and TMZ, patient with diffuse Lewy body disease at autopsy): rapidly deteriorated | haematological toxicity limiting chemotherapy ([2]; person, concomitant daily TMZ with involved-field radiotherapy, only two weeks of chemotherapy administered): low blood counts
